From US20240158446A1, “CYCLIC COMPOUND HAVING SELECTIVE INHIBITORY ACTION ON KRAS OVER HRAS AND NRAS” (CHUGAI SEIYAKU KABUSHIKI KAISHA, priority 2021, published 2024)
Like-named read-outs stand apart in the source and are kept apart here. *1 amine or outer side, *2 acyl side, *3 side chain or, on linkers, in order; H or OH if unused. Where a SMILES comes first, the peptide text is derived from it. Bridges are numbered along the chain shown (N, C = ends). [ ]: non-standard residue; d: D form. The star is where a group is joined. hPhe(3-Cl-4-CF3) = N[C@@H](CCc1ccc(C(F)(F)F)c(Cl)c1)C(=O)O; NPrPhe(4-CF3) = CCCN[C@@H](Cc1ccc(C(F)(F)F)cc1)C(=O)O; X28 = COCCCN([C@@H](Cc1ccc(C)cc1)C(=O)[*:2])[*:1]; NEtPhe(4-Me) = CCN[C@@H](Cc1ccc(C)cc1)C(=O)O; NMeGly(cPent) = CN[C@H](C(=O)O)C1CCCC1; NMeD = CN[C@@H](CC(=O)O)C(=O)O; NMeL = CN[C@@H](CC(C)C)C(=O)O; Azetidin(1-yl) = C1CN(*)C1; Morpholide = C1CN(*)CCO1; NMeA = CN[C@@H](C)C(=O)O; Ac5c = NC1(C(=O)O)CCCC1; Aze = O=C(O)[C@@H]1CCN1; Ac4c = NC1(C(=O)O)CCC1; Sar = CNCC(=O)O

Tests used:
[1] = molecular target: GDP-bound KRAS wild-type protein (Homo sapiens, UniProt P01116); test: Binding to KRAS by surface plasmon resonance (SPR), Single Cycle Kinetics; conditions: GDP-bound KRAS wild-type protein, read-out: KRAS KD
[2] = molecular target: GDP-bound NRAS wild-type protein (Homo sapiens, UniProt P01111); test: Binding to NRAS by surface plasmon resonance (SPR), Single Cycle Kinetics; conditions: for NRAS/KRAS (ratio of KD value for NRAS to KD value for KRAS) / NRAS/KRAS (ratio of KD value with respect to NRAS to KD value with respect to KRAS): SPR, GDP-bound NRAS wild-type protein vs GDP-bound KRAS wild-type protein; for NRAS/KRAS (ratio of KD value with respect to GDP-bound NRAS wild-type protein to KD value with respect to KRAS): SPR KD ratio NRAS/KRAS, class symbols
[3] = molecular target: GDP-bound HRAS wild-type protein (Homo sapiens, UniProt P01112); test: Binding to HRAS by surface plasmon resonance (SPR), Single Cycle Kinetics; conditions: for HRAS/KRAS (ratio of KD value for HRAS to KD value for KRAS) / HRAS/KRAS (ratio of KD value with respect to HRAS to KD value with respect to KRAS): SPR, GDP-bound HRAS wild-type protein vs GDP-bound KRAS wild-type protein; for HRAS/KRAS (ratio of KD value with respect to GDP-bound HRAS wild-type protein to KD value with respect to KRAS): SPR KD ratio HRAS/KRAS, class symbols
[4] = SPR Single Cycle Kinetics, 1:1 binding model

GDP-bound NRAS wild-type protein, sequence (P01111 whole entry): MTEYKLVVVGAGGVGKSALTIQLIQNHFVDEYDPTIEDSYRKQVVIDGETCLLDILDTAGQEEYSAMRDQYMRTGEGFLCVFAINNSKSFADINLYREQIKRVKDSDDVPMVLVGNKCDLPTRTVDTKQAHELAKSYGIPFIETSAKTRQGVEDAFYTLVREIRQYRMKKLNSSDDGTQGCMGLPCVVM
GDP-bound KRAS wild-type protein, sequence (P01116 whole entry): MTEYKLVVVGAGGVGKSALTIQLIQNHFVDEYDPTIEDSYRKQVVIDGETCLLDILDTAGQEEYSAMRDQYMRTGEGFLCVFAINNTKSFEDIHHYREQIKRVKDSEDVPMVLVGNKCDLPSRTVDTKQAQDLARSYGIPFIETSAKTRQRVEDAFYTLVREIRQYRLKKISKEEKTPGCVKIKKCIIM
GDP-bound HRAS wild-type protein, sequence (P01112 whole entry): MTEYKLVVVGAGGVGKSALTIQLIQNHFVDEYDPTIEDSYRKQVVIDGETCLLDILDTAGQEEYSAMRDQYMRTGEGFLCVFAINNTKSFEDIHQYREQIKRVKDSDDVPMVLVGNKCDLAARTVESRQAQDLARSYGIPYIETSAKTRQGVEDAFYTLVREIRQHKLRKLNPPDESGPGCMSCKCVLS

Kd ([1]; SPR, Single Cycle Kinetics) [nM]	Kd [1, 4] [nM]	SMILES	NRAS/KRAS (ratio of KD value for NRAS to KD value for KRAS) [2]	HRAS/KRAS (ratio of KD value for HRAS to KD value for KRAS) [3]	NRAS/KRAS (ratio of KD value with respect to GDP-bound NRAS wild-type protein to KD value with respect to KRAS) [2]	HRAS/KRAS (ratio of KD value with respect to GDP-bound HRAS wild-type protein to KD value with respect to KRAS) [3]	NRAS/KRAS (ratio of KD value with respect to NRAS to KD value with respect to KRAS) [2]	HRAS/KRAS (ratio of KD value with respect to HRAS to KD value with respect to KRAS) [3]
	0.081	CCCN1C(=O)[C@@H]2CCN2C(=O)[C@H](C)N(C)C(=O)[C@H]([C@@H](C)CC)NC(=O)[C@H](CC(C)C)N(C)C(=O)C[C@@H](C(=O)N2CCC2)N(C)C(=O)[C@H](C2CCCC2)N(C)C(=O)C2(CCCC2)NC(=O)[C@@H]2CCCN2C(=O)[C@H](CCc2ccc(C(F)(F)F)c(Cl)c2)NC(=O)CN(C)C(=O)[C@@H]1Cc1ccc(C(F)(F)F)cc1 [PP0181] ([NMeL]I[NMeA][Aze][NPrPhe(4-CF3)][Sar][hPhe(3-Cl-4-CF3)]P[Ac5c][NMeGly(cPent)][NMeD]-{Azetidin(1-yl)}; lactam N-11)	C (A compound having a KD ratio of 0.1 or more and less than 3 is denoted as C)	B (a compound having 3 or more and less than 10 is denoted as B)				
	0.076	CC[C@H](C)[C@@H]1NC(=O)[C@H](CC(C)C)N(C)C(=O)C[C@@H](C(=O)N2CCOCC2)N(C)C(=O)[C@H](C2CCCC2)N(C)C(=O)C2(CCCC2)NC(=O)[C@@H]2CCCN2C(=O)[C@H](CCc2ccc(C(F)(F)F)c(Cl)c2)NC(=O)CN(C)C(=O)[C@H](Cc2ccc(C)cc2)N(CCCOC)C(=O)[C@@H]2CCN2C(=O)[C@H](C)N(C)C1=O [PP0093] ([NMeL]I[NMeA][Aze][X28][Sar][hPhe(3-Cl-4-CF3)]P[Ac5c][NMeGly(cPent)][NMeD]-Morpholide; lactam N-11)	C (A compound having a KD ratio of 0.1 or more and less than 3 is denoted as C)	B (a compound having 3 or more and less than 10 is denoted as B)				
	1	CCCN1C(=O)CN(C)C(=O)CNC(=O)[C@H]([C@@H](C)CC)NC(=O)[C@H](CC(C)C)N(C)C(=O)C[C@@H](C(=O)N(C)C)NC(=O)[C@H](C2CCCC2)N(C)C(=O)C2(CCC2)NC(=O)[C@@H]2CCCN2C(=O)[C@H](CCc2ccc(C(F)(F)F)c(Cl)c2)NC(=O)CN(C)C(=O)[C@@H]1Cc1ccc(C(F)(F)F)cc1 [PP0362] ([NMeL]IG[Sar][NPrPhe(4-CF3)][Sar][hPhe(3-Cl-4-CF3)]P[Ac4c][NMeGly(cPent)]D-NMe2; lactam N-11)	B (a compound having 3 or more and less than 10 is denoted as B)	B (a compound having 3 or more and less than 10 is denoted as B)				
	0.18	CC[C@H](C)[C@@H]1NC(=O)[C@H](CC(C)C)N(C)C(=O)C[C@@H](C(=O)N2CCOCC2)N(C)C(=O)[C@H](C2CCCC2)N(C)C(=O)C2(CCCC2)NC(=O)[C@@H]2CCCN2C(=O)[C@H](CCc2ccc(C(F)(F)F)c(Cl)c2)NC(=O)CN(C)C(=O)[C@H](Cc2ccc(C)cc2)N(CC)C(=O)CN(C)C(=O)CN(C)C1=O [PP0022] ([NMeL]I[Sar][Sar][NEtPhe(4-Me)][Sar][hPhe(3-Cl-4-CF3)]P[Ac5c][NMeGly(cPent)][NMeD]-Morpholide; lactam N-11)	B (a compound having 3 or more and less than 10 is denoted as B)	C (A compound having a KD ratio of 0.1 or more and less than 3 is denoted as C)				

The next lines start with the compound.

SMILES	Kd ([1]; SPR, Single Cycle Kinetics) [nM]	Kd [1, 4] [nM]	NRAS/KRAS (ratio of KD value for NRAS to KD value for KRAS) [2]	HRAS/KRAS (ratio of KD value for HRAS to KD value for KRAS) [3]	NRAS/KRAS (ratio of KD value with respect to GDP-bound NRAS wild-type protein to KD value with respect to KRAS) [2]	HRAS/KRAS (ratio of KD value with respect to GDP-bound HRAS wild-type protein to KD value with respect to KRAS) [3]	NRAS/KRAS (ratio of KD value with respect to NRAS to KD value with respect to KRAS) [2]	HRAS/KRAS (ratio of KD value with respect to HRAS to KD value with respect to KRAS) [3]
CC[C@H](C)[C@@H]1NC(=O)[C@H](CC)N(C)C(=O)C[C@@H](C(=O)N(C)C)N(C)C(=O)[C@H](C2CCCC2)N(C)C(=O)C2(CCC2)NC(=O)[C@@H]2C[C@H](OC)CN2C(=O)[C@H](CCc2cc(F)c(C(F)(F)F)c(F)c2)NC(=O)CN(C)C(=O)[C@H](Cc2ccc(C(F)(F)F)cc2)N2CC/C=C\C[C@@H](C2=O)N(C)C(=O)CN(C)C1=O [PP1128, (2S,8S,12S,14S,20S,23S,27S,30S,36S,38Z)-20-cyclopentyl-8-[2-[3,5-difluoro-4-(trifluoromethyl)phenyl]ethyl]-27-ethyl-12-methoxy-N,N,4,19,22,26,32,35-octamethyl-30-[(1S)-1-methylpropyl]-3,6,9,15,18,21,25,28,31,34,42-undecaoxo-2-[[4-(trifluoromethyl)phenyl]methyl]spiro[1,4,7,10,16,19,22,26,29,32,35-undecazatricyclo[34.5.1.0^10,14]dotetracont-38-ene-17,1′-cyclobutane]-23-carboxamide]	0.12		AA (a compound having 20 or more is denoted as AA)	A (a compound having 10 or more and less than 20 is denoted as A)				
CCO[C@@H]1C[C@H]2C(=O)NC3(CC(C)(C)C3)C(=O)N(C)[C@@H](C(CC)CC)C(=O)N(C)[C@H](C(=O)N(C)C)CC(=O)N(C)[C@@H](CC)C(=O)N[C@@H]([C@@H](C)CC)C(=O)N(C)CC(=O)N(C)[C@H]3C/C=C\CCN(C3=O)[C@@H](Cc3ccc(C)cc3)C(=O)N(C)CC(=O)N[C@@H](CCc3cc(F)c(C(F)(F)F)c(F)c3)C(=O)N2C1 [PP2147]	0.33		A (a compound having 10 or more and less than 20 is denoted as A)	B (a compound having 3 or more and less than 10 is denoted as B)				
CCC(CC)[C@H]1C(=O)N(C)[C@H](C(=O)N(C)C)CC(=O)N(C)[C@H]2CCC/C=C/c3ccc(cc3)C[C@@H](C(=O)N(C)CC(=O)N[C@@H](CCc3cc(F)c(C(F)(F)F)c(F)c3)C(=O)N3C[C@H](OC(C)C)C[C@H]3C(=O)NC3(CC(C)(C)C3)C(=O)N1C)N1CC/C=C\C[C@@H](C1=O)N(C)C(=O)CN(C)C(=O)[C@H]([C@@H](C)CC)NC2=O [PP2594]		0.1			A (a compound having 10 or more and less than 20 is denoted as A)	A (a compound having 10 or more and less than 20 is denoted as A)		
CCO[C@@H]1C[C@H]2C(=O)NC3(CCC3)C(=O)N(C)[C@@H](C(CC)CC)C(=O)N(C)[C@H](C(=O)N3CCCC3)CC(=O)N(C)[C@H]3CCC/C=C/c4ccc(cc4)C[C@@H](C(=O)N(C)CC(=O)N[C@@H](CCc4ccc(Cl)c(Cl)c4)C(=O)N2C1)N1CC/C=C\C[C@@H](C1=O)N(C)C(=O)CN(C1CC1)C(=O)[C@H]([C@@H](C)CC)NC3=O [PP3040]	0.29		AA (a compound having 20 or more is denoted as AA)	A (a compound having 10 or more and less than 20 is denoted as A)				
CCC[C@H]1C(=O)N[C@@H]([C@@H](C)CC)C(=O)N(C)CC(=O)N(C)[C@H]2CCCCCN(C2=O)[C@@H](Cc2ccc(C(F)(F)F)cc2)C(=O)N(C)CC(=O)N[C@@H](CCc2cc(F)c(C(F)(F)F)c(F)c2)C(=O)N2C[C@H](OCC)C[C@H]2C(=O)NC2(CCC2)C(=O)N(C)[C@@H](C2CCCC2)C(=O)N(C)[C@H](C(=O)N2CCOCC2)CC(=O)N1C [PP0679]		0.58					B (a compound having 3 or more and less than 10 is denoted as B)	B (a compound having 3 or more and less than 10 is denoted as B)
CCO[C@@H]1C[C@H]2C(=O)NC3(CCC3)C(=O)N(C)[C@@H](C3CCCC3)C(=O)N(C)[C@H](C(=O)N(C)C)CC(=O)N(C)[C@@H](CC3CCCC3)C(=O)N[C@@H]([C@@H](C)CC)C(=O)N(C)CC(=O)N(C)[C@H]3C/C=C\CCN(C3=O)[C@@H](Cc3ccc(C)cc3)C(=O)N(C)CC(=O)N[C@@H](CCc3cc(F)c(CC)c(OC)c3)C(=O)N2C1 [PP2674]		0.5			A (a compound having 10 or more and less than 20 is denoted as A)	A (a compound having 10 or more and less than 20 is denoted as A)		
CCO[C@@H]1C[C@H]2C(=O)NC3(CCC3)C(=O)N(C)[C@@H](C3CCCC3)C(=O)N(CCC3CCC3)[C@H](C(=O)N(C)C)CC(=O)N(C)[C@@H](CC)C(=O)N[C@@H]([C@@H](C)CC)C(=O)N(C)CC(=O)N(C)[C@H]3CCCCCN(C3=O)[C@@H](Cc3ccc(C(F)(F)F)cc3)C(=O)N(C)CC(=O)N[C@@H](CCc3cc(F)c(C(F)(F)F)c(F)c3)C(=O)N2C1 [PP0635]		2.7					B (a compound having 3 or more and less than 10 is denoted as B)	B (a compound having 3 or more and less than 10 is denoted as B)
CCO[C@@H]1C[C@H]2C(=O)NC3(CCC3)C(=O)N(C)[C@@H](C3CCCC3)C(=O)N(C)[C@H](C(=O)N(C)C)CC(=O)N(C)[C@@H](CC(F)(F)F)C(=O)N[C@@H]([C@@H](C)CC)C(=O)N(C)CC(=O)N(C)[C@H]3C/C=C\CCN(C3=O)[C@@H](Cc3ccc(C(F)(F)F)cc3)C(=O)N(C)CC(=O)N[C@@H](CCc3cc(F)c(C(F)(F)F)c(F)c3)C(=O)N2C1 [PP1124, (2S,8S,12R,14S,20S,23S,27S,30S,36S,38Z)-20-cyclopentyl-8-[2-[3,5-difluoro-4-(trifluoromethyl)phenyl]ethyl]-12-ethoxy-N,N,4,19,22,26,32,35-octamethyl-30-[(1S)-1-methylpropyl]-3,6,9,15,18,21,25,28,31,34,42-undecaoxo-27-(2,2,2-trifluoroethyl)-2-[[4-(trifluoromethyl)phenyl]methyl]spiro[1,4,7,10,16,19,22,26,29,32,35-undecazatricyclo[34.5.1.0^10,14]dotetracont-38-ene-17,1′-cyclobutane]-23-carboxamide]	0.056		A (a compound having 10 or more and less than 20 is denoted as A)	B (a compound having 3 or more and less than 10 is denoted as B)				
